The target of the test is T1, L-CPT1 (human liver CPT1) (Homo sapiens, UniProt P50416).
T1 construct: made in house; host or cells: Pichia pastoris strain X-33 (pGAPZB/pGAPZA), crude cell-free extract
T1 sequence (P50416 1-773): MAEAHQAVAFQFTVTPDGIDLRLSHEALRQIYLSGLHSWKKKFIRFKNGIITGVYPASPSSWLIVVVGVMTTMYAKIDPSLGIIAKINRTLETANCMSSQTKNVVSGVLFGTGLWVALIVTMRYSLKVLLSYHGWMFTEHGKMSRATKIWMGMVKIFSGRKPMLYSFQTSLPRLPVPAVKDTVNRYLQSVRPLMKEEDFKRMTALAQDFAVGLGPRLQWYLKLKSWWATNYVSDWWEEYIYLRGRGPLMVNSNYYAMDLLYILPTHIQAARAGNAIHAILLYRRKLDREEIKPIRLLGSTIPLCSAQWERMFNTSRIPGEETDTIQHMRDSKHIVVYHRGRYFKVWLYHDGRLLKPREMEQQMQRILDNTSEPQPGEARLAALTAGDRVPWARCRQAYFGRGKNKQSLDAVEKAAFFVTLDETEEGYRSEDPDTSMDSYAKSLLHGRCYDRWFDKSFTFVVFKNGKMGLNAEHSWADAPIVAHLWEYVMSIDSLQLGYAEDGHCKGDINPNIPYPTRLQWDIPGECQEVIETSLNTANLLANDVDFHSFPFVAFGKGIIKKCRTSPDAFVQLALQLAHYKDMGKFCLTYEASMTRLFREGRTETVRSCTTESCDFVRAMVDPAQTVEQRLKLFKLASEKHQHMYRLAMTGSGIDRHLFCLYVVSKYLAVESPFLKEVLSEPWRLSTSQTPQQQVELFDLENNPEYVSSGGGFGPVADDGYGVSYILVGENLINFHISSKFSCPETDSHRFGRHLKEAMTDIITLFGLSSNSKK
Put plainly: L-CPT1 inhibition, spectrophotometric CPT activity assay with DTNB (Ellman's reagent). It counts as biochemical. The settings on record: cell-free extracts of P. pastoris expressing human liver CPT1; carnitine 500 μM, palmitoyl-CoA 80 μM, DTNB 300 μM, pH 7.4. On the procedure: The following tests were carried out in order to determine the activity of the compounds of the present invention. Background information on the performed assays can be found in: Jackson et al., 1999, Biochem. J. 341, 483-489 and Jackson et al., 2000, J. Biol. Chem. 275, 19560-19566.
Human liver and muscle CPT1 cDNAs and rat CPT2 cDNA were subcloned in pGAPZB or pGAPZA, respectively. These plasmids were used to transform P. pastoris strain X-33 via electroporation after the preparation of electrocompetent cells. High copy number clones were selected where necessary using 0.5 or 1 mg/ml Zeocin. Cultures for activity measurements were induced for 16 h in YPD medium (1% yeast extract, 2% peptone, 2% glucose). Crude cell extracts were prepared by disrupting the cells with glass beads or French Press, depending on fermenter sizes. After centrifugation, the cell-free extracts were resuspended in cell breaking buffer (50 mM Tris, pH7.4, 100 mM KCl, 1 mM EDTA) in the presence of a protease inhibitor cocktail, before aliquoting and freezing at −20° C.
CPT activity was measured using a spectrophotometric assay using 5,5′-dithio-bis-(2-nitrobenzoic acid) (DTNB) also called Ellman's reagent. The HS-CoA released on the formation of acylcarnitine from carnitine (500 μM) and palmitoyl-CoA (80 μM) reduced DTNB (300 μM) forming 5-mercapto-(2-nitrobenzoic acid) which absorbed at 410 nm with a molar extinction coefficient of 13600 M^−1.cm^−1. The assay buffer contained 120 mM KCl, 25 mM Tris, pH 7.4, 1 mM EDTA. This assay was used for the identification of selective inhibitors of the liver CPT1 isoform versus the muscle CPT1 and CPT2 isoforms.

SMILES strings stand for the structures.

Compound `COc1ccc(Cl)cc1S(=O)(=O)N1COc2ccc(C(=O)Nc3ccc(C(=O)O)c(F)c3)cc21` [Example 32, 4-{[3-(5-Chloro-2-methoxy-benzenesulfonyl)-2,3-dihydro-benzooxazole-5-carbonyl]-amino}-2-fluoro-benzoic acid] showed an IC50 of 140 nM.
As for `O=C(O)Cc1csc(NC(=O)c2ccc3c(c2)N(S(=O)(=O)c2cccc(Cl)c2)CCO3)n1` [Example 92, (2-{[4-(3-Chloro-benzenesulfonyl)-3,4-dihydro-2H-benzo[1,4]oxazine-6-carbonyl]-amino}-thiazol-4-yl)-acetic acid], the figure is 23 nM; as for `COc1ccc(Cl)cc1S(=O)(=O)N1COCc2ccc(C(=O)Nc3ccc(C(=O)O)cc3)cc21` [Example 73, 4-{[1-(5-Chloro-2-methoxy-benzenesulfonyl)-1,4-dihydro-2H-benzo[d][1,3]oxazine-7-carbonyl]-amino}-benzoic acid], 56 nM; as for `COc1ccc(Cl)cc1S(=O)(=O)N1CCOc2ccc(C(=O)Nc3ccc(C(=O)O)c(F)c3)cc21` [Example 2, 4-{[4-(5-Chloro-2-methoxy-benzenesulfonyl)-3,4-dihydro-2H-benzo[1,4]oxazine-6-carbonyl]-amino}-2-fluoro-benzoic acid], 78 nM.
Consider `COc1ccc(Cl)cc1S(=O)(=O)N1CC(C(=O)O)Oc2ccc(C(=O)Nc3cccc(F)c3)cc21` (centres unmarked) [Example 113, 4-(5-Chloro-2-methoxy-benzenesulfonyl)-6-(3-fluoro-phenylcarbamoyl)-3,4-dihydro-2H-benzo[1,4]oxazine-2-carboxylic acid], for which the IC50 was 16 nM.

The values above are taken from US7696200B2, “Bicyclic sulfonamide derivatives which are L-CPT1 inhibitors” (Hoffmann-La Roche Inc., priority 2006, dated 2010).
